Consider one compound from patent US11499197B2, “Prognosis method of multiple myeloma” (CENTRE NATIONAL DE LA RECHERCHE SCIENTIFIQUE, priority 2017, dated 2022).

In data set [1] the test system is primary Mouse myeloma (5T33vv) and mouse myeloma cell line (5T33vt). The data set is described as follows: Mouse myeloma cell viability (CTG). The note with it: 5T33vv and 5T33vt, CTG after 24, 48 or 96 hours. The class given is cell-based. Here is the method: FIG. 18 represents graphs cell viability of primary Mouse myeloma (5T33vv) and mouse myeloma cell line (5T33vt), monitored by CTG after 24, 48 or 96 hours treatment with indicated inhibitors.

The test system of data set [2] is AMO1 HMCL. Put plainly: Apoptosis (annexin V, PARP cleavage) by flow cytometry. The class given is cell-based, human. As to conditions: AMO1; sub-lethal Melphalan or Lenalidomide + inhibitor at IC20, 4 days. From the text:
FIG. 14 represents graphs showing that inhibitors increase apoptosis (annexin and PARP) in AMO1 cell line; Annexin and PARP were monitored by flow cytometry after 4 days treatments. p-value: *<0.05; **<0.01; ***<0.001.
FIG. 25 represents graphs illustrating that the co-treatments induce cell death and differentially affect DNA damages in AMO1 HMCL. Co-treatment with selected kinase inhibitors at IC20 and Melphalan or Lenalidomide.
(§1) Cells were culture in 12 wells plate for 4 days. Apoptotic cells were detected using phycoerythrin-conjugated Annexin V (PE-annexin V, BD Pharmingen). For the cell cycle and DNA damage, we used the Apoptosis, DNA damage and cell proliferation kit (BD), following the manufacturer's protocol.
(Flow cytometry measures light scatter and fluorescence of single cells or particles in a stream.)

Data set [3] deals with XG1. Put plainly: Cell Titer Glo viability, XG1 HMCL. Format: cell-based, human. The note with it: Homo sapiens; XG1, CTG viability. Here is the method: (§2) AMO-1 and OPM2 HMCLs were purchased from DSMZ (Braunschweig, Germany), XG1 and XG21 were obtained as described (Moreaux et al., 2011). HMCLs were cultured in RPMI 1640 medium, 10% FCS (control medium). For XG-IL-6 dependent HMCLs 2 ng/ml IL-6 was added. Cells were cultured in 96-well flat-bottom microtiter plates in the presence of a concentration range of selected compounds: AZD7762 and OTSSP167 (Selleck, euromedex), HITOPK032, XL413, SRPIN340 (Sigma), AZ3146, Centrinone B (Tocris). Cell Titer Glo Luminescent Assay (Promega, Madison, Wis., USA) was used to assess cell viability, and the 50% inhibition (IC50) was determined using GraphPad Prism software (http://www.graphpad.com/scientific-software/prism/).
(§3) Statistical comparisons were done with unpaired or paired Student's t-tests. The effect of drug combination was evaluated using the methods developed by Chou and Talalay (Chou and Talalay, 1984) by calculating the combination Index (CI), with CI<1, CI=1, and CI>1 respectively indicating synergism, additive effects, and antagonism. Here we used CI=0.90-1.10 to indicated additivity.
(Cellular ATP, detected with luciferase, serves as a proxy for viable cell number.)

For data set [4], the system named is primary MM cells from patients. The data set is described as follows: Primary myeloma cell cytotoxicity (CD138 flow cytometry). Format: cell-based, human. As to conditions: N=5 patients, 4 days of treatment. An excerpt: FIG. 16 represents graphs showing the % of CD138+ cells after treatment by AZD7762, OTSSP167 and Centrinone B in 5 different primary MM cells.
FIG. 17 represents graphs showing that the three tested inhibitors reduce % of tumor MM cells without toxicity on normal BM microenvironment cells from patients (N=5). CD138 amount was monitored by flow cytometry after 4 days of treatment.
Bone marrow of patients presenting with previously untreated MM (N=5) at the university hospital of Montpellier was obtained after patients' written informed consent in accordance with the Declaration of Helsinki and agreement of the Montpellier University Hospital Centre for Biological Resources (DC-2008-417). Primary myeloma cells of patients were cultured with or without graded concentrations of selected inhibitors and MMC cytotoxicity evaluated using anti-CD138-Phycoerythrin monoclonal antibody and CD38-Allophycocyanin (Beckman-Coulter) as described (Moreaux et al., 2012).

Data set [5] concerns AMO1 HMCL. Put plainly: Cell cycle analysis by flow cytometry. The note with it: AMO1, single agent. The class given is cell-based, human.
Excerpt: FIG. 15 represents graphs showing the effects of the treatments with inhibitors on cell cycle in AMO1 cells. p-value: *<0.05; **<0.01; ***<0.001.
FIG. 29 represents graphs illustrating that Co-treatments differentially affect cell cycle in AMO1 cell line. Cotreatment with Melphalan or Lenalidomide and A) AZD7762; B) OTSSP167; C) Centrinone B; D) XL413. Cell cycle was monitored by flow cytometry after 4 days co-treatments. p-value: *<0.05; **<0.01; ***<0.001.
as §1

Data set [6] concerns AMO1 HMCL. Put plainly: Proteome profiler array (phospho kinases, apoptosis proteins). Format: cell-based, human. The note with it: AMO1, 48 h treatment. Here is the method: Proteins accumulations were monitored after 48 h treatment on AMO1 HMCL using proteome profiler array. Relative amount was calculated as the mean of pixel density. Phospho kinases and apoptosis proteins were quantified using the dedicated proteome Profiler™ array (RD systems, Bio-techne) following the manufacturer instructions. 500 μg and 300 μg protein were used for the two arrays respectively.

The test system of data set [7] is XG21. The data set is described as follows: Cell Titer Glo viability, XG21 HMCL. Format: cell-based, human. The note with it: Homo sapiens; XG21, CTG viability. Here is the method:
as §2, §3

The subject of data set [8] is AMO1. The data set is described as follows: Cell Titer Glo viability, AMO1 HMCL. The class given is cell-based, human. The note with it: Homo sapiens; AMO1, CTG viability. Here is the method:
as §2, §3

Data set [9] deals with XG7 WT and XG7 Mres. The data set is described as follows: Viability of melphalan sensitive and resistant cell lines (CTG). The note with it: inhibitor at IC20. The class given is cell-based, human. The protocol: FIG. 32 represents a graph of the calculated IC50 for the co-treatment with melphalan and selected kinase inhibitors at IC20. Melphalan sensitive (XG7 WT) and Resistant (XG7 MRes) cell lines were treated for 4 days with the selected kinases inhibitors. Cell viability was monitored by the CTG. p-value: *<0.05; **<0.01; ***<0.001.
The facts that: 1) all drugs tested are actively decreasing HMCLs viability and induce apoptosis; 2) co-treatment with melphalan leads to synergy or potentialized the decrease of cell viability; 3) some of the selected kinases inhibitors can reverse the resistance to lenalidomide in AMO1 HMCL, led us to question the capability of these drugs to reverse or reduce also melphalan resistance. In that purpose, the inventors used a cell line developed in the inventors' laboratory, and that has been culture to resist to melphalan (Mres) compare to its negative control (WT) (FIG. 30). The inventors first tested the capacity of the different inhibitors to reduce cell viability in this model. All tested kinase's inhibitors lower cell viability of the control or the melphalan resistant cell line.

For data set [10], the system named is HMCLs (AMO1, OPM2, XG1, XG21). The data set is described as follows: HMCL viability, single and co-treatment with conventional MM drugs (CTG). The class given is cell-based, human. The note with it: inhibitor at IC20. Here is the method: as §2, §3
Keeping in mind the main objective of identifying alternative and efficient complementary treatment for MM patients, the inventors next performed co-treatment on HMCLs with commonly used therapeutic drugs in MM (e.g. Melphalan, Lenalidomide, Velcade) and the different kinases inhibitors. In order to fit to the goal of a combination treatment the inventors used an arbitrary […] for all the kinases inhibitors, which the inventors associated with various concentration of the standard therapeutic.

Data set [11] has as its system OPM2. Put plainly: Cell Titer Glo viability, OPM2 HMCL. Format: cell-based, human. As to conditions: Homo sapiens, OPM-2; OPM2, CTG viability. The protocol: as §2, §3
Data set [12] has as its system normal BM microenvironment cells from patients. Put plainly: Toxicity on non-tumoral bone marrow cells in primary patient cultures. Format: cell-based, human. The note with it: N=5 patients, 4 days. An excerpt:
CD138 amount was monitored by flow cytometry after 4 days of treatment.

With `NC(=O)Nc1cc(-c2cccc(F)c2)sc1C(=O)N[C@H]1CCCNC1` [AZD7762], the “cell viability in mouse cellular model of multiple myeloma” value in [1] was “demonstrated similar efficiency”. In data set [2], the “cell death via apoptosis (annexin) on co-treatment” value is recorded as “increase cell death via apoptosis”. Moreover, the IC50 in data set [3] is 95 nM; in [7] it was 210 nM; in data set [8] it was 136 nM; in data set [11], 116 nM. For the same compound, in [4], the “number of tumoral cells (CD138+)” value is “reduced the number of tumoral cells”. Also, the cell cycle arrest entry in [5] was “arrested the cells in S phase”. Moreover, the claspin and survivin entry in data set [6] is “decrease in claspin and survivin”. In addition, in data set [8], the concentration for an effect of 20% (IC20) came out at 82 nM. The “melphalan resistance on co-treatment with melphalan” value in data set [9] is listed as “reversed the melphalan resistance”. Further, in data set [10] (AMO1 and OPM2), the “Lenalidomide treatment on co-treatment with kinase inhibitor” value is recorded as “potentialized”. For the same compound, the synergy with lenalidomide result in data set [10] (XG1, XG21, AMO1, OPM2) is on record as “synergized with the conventional treatment”. Also, the synergy with melphalan entry in [10] (XG1, XG21, AMO1, OPM2) is given as “synergized with the conventional treatment”. In addition, the “effect on non-tumoral cells” value in data set [12] was “barely affected”.

A word on the IC50: it is the concentration needed to halve the response being measured. Usually IC20 stands for the concentration at which the effect reaches the 20% level.
